In patent US7371524B2, “Substituted azaporphyrins as fluorescence labels” (priority 2003, dated 2008):

How the values were obtained:
Type in all cases: physicochemical
[1] = Fluorescence intensity and polarization of free dye in buffers and glycerol (solvent sensitivity); settings: for solvent sensitivity of fluorescence intensity: buffer, buffer plus serum, glycerol; for Fluorescence Intensity (I), BBS / Polarization (mp), BBS: borate buffered saline pH 8.0; for Fluorescence Intensity (I), TDx Buffer: intensities comparable only horizontally
Excerpt: The performance of a fluorophore (fluorescent moiety) can be partly assessed by measurements on the free dye i.e., not in a complete fluorescent probe. Meaningful parameters in this kind of test include fluorescence intensity and polarization/anisotropy which usually are altered when the fluorophore is exposed to different ionic strengths, specific ions or biomolecules such as are present in blood serum. These effects may be thought of as “solvent effects” and may be produced either by changes in the interactions between molecules of the fluorophore to change the state of aggregation or between fluorophore molecules and the components of the solvent (nonspecific binding, NSB).
In Table 1 the performance of any one dye can be judged by the changes in fluorescence intensity (I), and/or the changes in polarization (mp, milli-polarization units) as one proceeds horizontally across the table. The “perfect” fluorescence label would have the same values for each of these parameters regardless of the solvent composition.
Abbreviations: mp: […]; TDx Buffer: Commercial buffer used in fluorescence polarization assays; Pc: phthalocyanine; BBS: Borate buffered saline (0.25 M NaCl, 0.0232 M boric acid and 0.00179 M sodium tetraborate. The pH is finally adjusted to 8.0+/−0.05 with 1M NaOH). When serum was tested, 25 μl of whole serum was added to 1 ml of BBS (containing 25 μl of the dye already added). Note that the relative concentrations of the various fluorophores is not known so that comparisons of fluorescence intensities are meaningful only when proceeding in a horizontal direction. An alternative to BBS for manipulating LJB-3 in aqueous solutions is borate buffered KCl (BBKCl) which is made by mixing 33.1 ml of 0.70 M boric acid, 4.0 ml of 0.50 M K2B4O7, 75 ml of 4.0 M KCl and water to make 1 liter: pH ca. 8.1.
Fluorescence measurements: These were made in a transient state polarization fluorometer (FAST-1, Hyperion, Inc. Miami, Fla.)

[2] = Near infrared absorbance of dye
[3] = Passage through membranes and gel permeation chromatography (micelle formation); settings: PEG dye at 10^−4 M and above
Excerpt: In addition, an advantage emerges in that micelle formation by the PEG is absent. […] Also, the dye moves in the void volume in gel permeation chromatography designed to separate macromolecules from small molecules.

| Fluorescence Intensity (I), BBS [1] | Polarization (mp), BBS [1] [mp] | Fluorescence Intensity (I), Glycerol [1] | Polarization (mp), Glycerol [1] [mp] | Polarization (mp), TDx Buffer [1] | Fluorescence Intensity (I), TDx Buffer [1] | sensitivity to ionic strength [1] | near infrared absorbance maximum [2] [nm] | Substance | solvent sensitivity of fluorescence intensity [1] | behaviour on membranes (30K daltons) and in gel permeation chromatography [3] |
| --- | --- | --- | --- | --- | --- | --- | --- | --- | --- | --- |
| – | – | – | – | – | – | – | – | Bis-hydroxy (2,3Dicarboxyphthalocyanino) Silicon IV | less sensitive to serum and solvent than is the Al compound | – |
| 1078 | 2.4 | 454 | 105 | 6.7 mp | 1069 | – | – | DiphosphatoSidicarboxyphthalocyanine | – | – |
| 520 | 3.4 | 3155 | 236 | 1.7 mp | 1108 | strong sensitivity to ionic strength | – | Hydroxyaluminumphthalocyaninetrisulfonate [Al Pc trisulfonate, reference compound] | very solvent-sensitive | – |
| 741 | 2.0 | 1351 | 199 | −.03 mp | 1230 | – | 679 | dihydroxy dicarboxy silicon phthalocyanine sulfonate [LJB-3] | almost the same fluorescence output in buffer, buffer plus serum or glycerol alone | behaves as expected for a molecule of its formula weight |
